According to patent US20190106498A1, “TREATMENT FOR ACUTE MYELOID LEUKEMIA” (priority 2017, published 2019):

How the values were obtained:
[1] = test system: AML; conditions: aza alone; cited from earlier work
[2] = test system: LSCs; experiment: CD70 expression on LSCs of AML patients treated with HMA; type: in vivo, human; conditions: newly diagnosed AML patients after HMA treatment
Description: (FIG. 2A) Representative FACS plots of CD70 expression on lin-CD90+CD34+CD38− AML stem/progenitor cells after culture in the presence or absence of 0.5 mM decitabine (D) or vehicle (Veh). Isotype: grey; CD70: black. (FIG. 2B) Cell Viability. (FIG. 2C) Fold change ΔMFI CD70 and (FIG. 2D) mRNA CD70 expression (AML: n=9-15; healthy: n=3). (FIG. 2E) Representative FACS plot and (FIG. 2F) fold change ΔMFI CD70 on stem/progenitor cells in the peripheral blood of AML patients at diagnosis and after 1 cycle of decitabine or azacitidine treatment (D(5), 20 mg/kg, daily for 5 days; A(7), 75 mg/m^2, daily for 7 days).

SMILES: Nc1ncn([C@@H]2O[C@H](CO)[C@@H](O)[C@H]2O)c(=O)n1 [azacitidine]
- response rate [1]: approximately 25%
- CD70 expression on LSCs compared to level at diagnosis [2]: increase in CD70 expression
